Like-named read-outs stand apart in the source and are kept apart here.
How the values were obtained:
HIV-1 (IIIB) = test: microbe, parasite or virus in culture; assay type: cell-based; details: Human immunodeficiency virus 1, IIIB, MT4, 120 h, read-out: MT4 EC50
pLAI reporter virus = test: microbe, parasite or virus in culture; assay type: cell-based, HIV; details: Human immunodeficiency virus 1, MT4, 72 h
in vitro = details: human; for CC50 at 5 days: uninfected MT-4 cells
Description: Compounds were serially diluted (1:3) in DMSO on 384-well polypropylene plates and further diluted 200-fold into complete RPMI media (10% FBS, 1% P/S) using the Biotek Micro Flow and Labcyte ECHO acoustic dispenser. […] Infected and uninfected MT-4 cells were further diluted in complete RPMI media and added to each plate using a Micro Flow dispenser. After 5 days incubation in a humidified and temperature controlled incubator (37° C.), Cell Titer Glo (Promega) was added to the assay plates and chemiluminescence read using an Envision plate-reader.
Assays were performed as above except uninfected MT-4 cells were added to each well containing test compound. In addition, 10 μM puromycin was added to the last column of each assay plate to assess a base level of cytotoxicity.

[1] = HIV-1 (IIIB) in MT-4 cells, 5 days incubation, Cell Titer Glo

| Structure (SMILES) | EC50 (HIV-1 (IIIB); [1]) | EC50 (pLAI reporter virus; read-out: RLUC 50% HS EC50) | EC50 (pLAI reporter virus; read-out: RLUC CCM EC50) | CC50 at 5 days (in vitro) | EC50 (HIV-1 (IIIB)) | CC50 (in vitro) |
| --- | --- | --- | --- | --- | --- | --- |
| C[C@H]1CC[C@]2(CC(c3ccccn3)=NO2)[C@H]2CN1C(=O)c1c(O)c(=O)c(C(=O)NCc3ccc(F)cc3F)cn12 [Example 13, (3′S,5S,7′R)—N-(2,4-difluorobenzyl)-12′-hydroxy-3′-methyl-1′,11′-dioxo-3-(pyridin-2-yl)-1′,4′,5′,11′-tetrahydro-3′H,4H,7′H-spiro[isoxazole-5,6′-[2,7]methanopyrido[1,2-a][1,4]diazonine]-10′-carboxamide] | 4.3 nM | 2.1 nM | 1.5 nM | ≥ 50000 nM |  |  |
| CC1=NO[C@@]2(CC[C@H](C)N3C[C@H]2n2cc(-c4nnc(Cc5c(F)cc(F)cc5F)s4)c(=O)c(O)c2C3=O)C1 [Example 152, (3′S,5S,7′R)-12′-hydroxy-3,3′-dimethyl-10′-(5-(2,4,6-trifluorobenzyl)-1,3,4-thiadiazol-2-yl)-4′,5′-dihydro-3′H,4H,7′H-spiro[isoxazole-5,6′-[2,7]methanopyrido[1,2-a][1,4]diazonine]-1′,11′-dione] |  |  |  | 14200 nM | 4.2 nM |  |
| C[C@H]1CC[C@]2(CC(=O)N(C)C2)[C@H]2CN1C(=O)c1c(O)c(=O)c(C(=O)NCc3c(F)cc(F)cc3F)cn12 [Example 61, (3R,3′S,7′S)-12′-hydroxy-1,3′-dimethyl-1′,5,11′-trioxo-N-(2,4,6-trifluorobenzyl)-1′,4′,5′,11′-tetrahydro-3′H,7′H-spiro[pyrrolidine-3,6′-[2,7]methanopyrido[1,2-a][1,4]diazonine]-10′-carboxamide] | 7.6 nM | 3.4 nM | 1.9 nM | ≥ 50000 nM |  |  |
| C[C@H]1CC[C@]2(CC(c3ccccc3)=NO2)[C@H]2CN1C(=O)c1c(O)c(=O)c(C(=O)NCc3ccc(F)cc3F)cn12 [Example 11, (3′S,5S,7′R)—N-(2,4-difluorobenzyl)-12′-hydroxy-3′-methyl-1′,11′-dioxo-3-phenyl-1′,4′,5′,11′-tetrahydro-3′H,4H,7′H-spiro[isoxazole-5,6′-[2,7]methanopyrido[1,2-a][1,4]diazonine]-10′-carboxamide] | 1.8 nM | 15.4 nM | 1.7 nM | 8730 nM |  |  |
| C[C@H]1CC[C@@]2(COCCO2)[C@H]2CN1C(=O)c1c(O)c(=O)c(C(=O)NCc3c(F)cc(F)cc3F)cn12 [Example 140, (2S,3′S,7′R)-12′-hydroxy-3′-methyl-1′,11′-dioxo-N-(2,4,6-trifluorobenzyl)-1′,4′,5′,11′-tetrahydro-3′H,7′H-spiro[[1,4]dioxane-2,6′-[2,7]methanopyrido[1,2-a][1,4]diazonine]-10′-carboxamide] | 1.8 nM | 1.7 nM | 0.1 nM | 22800 nM |  |  |
| C[C@H]1CC[C@]2(CC(C3CC3)=NO2)[C@H]2CN1C(=O)c1c(O)c(=O)c(C(=O)NCc3ccc(F)cc3F)cn12 [Example 15, (3′S,5S,7′R)-3-cyclopropyl-N-(2,4-difluorobenzyl)-12′-hydroxy-3′-methyl-1′,11′-dioxo-1′,4′,5′,11′-tetrahydro-3′H,4H,7′H-spiro[isoxazole-5,6′-[2,7]methanopyrido[1,2-a][1,4]diazonine]-10′-carboxamide] | 2.4 nM | 3.8 nM | 0.8 nM | ≥ 50000 nM |  |  |
| C[C@H]1CC[C@]2(OC[C@@H](Cc3ccccc3)O2)[C@H]2CN1C(=O)c1c(O)c(=O)c(C(=O)NCc3c(F)cc(F)cc3F)cn12 (single isomer, unassigned) [169 (peak 2)] | 4.3 nM | 4 nM | 2 nM | 45100 nM |  |  |
| CCC1=NO[C@@]2(CC[C@H](C)N3C[C@H]2n2cc(C(=O)NCc4ccc(F)cc4F)c(=O)c(O)c2C3=O)C1 [Example 8, (3′S,5S,7′R)—N-(2,4-difluorobenzyl)-3-ethyl-12′-hydroxy-3′-methyl-1′,11′-dioxo-1′,4′,5′,11′-tetrahydro-3′H,4H,7′H-spiro[isoxazole-5,6′-[2,7]methanopyrido[1,2-a][1,4]diazonine]-10′-carboxamide] | 0.8 nM | 75.2 nM | 0.2 nM | 14800 nM |  |  |
| CC1=NOC2(CC[C@H](C)N3C[C@H]2n2cc(C(=O)NCc4ccc(F)cc4F)c(=O)c(O)c2C3=O)N1N(C)C (stereo partly drawn) [Example 95, (3′S,7′R)—N-(2,4-difluorobenzyl)-4-(dimethylamino)-12′-hydroxy-3,3′-dimethyl-1′,11′-dioxo-1′,4′,5′,11′-tetrahydro-3′H,4H,7′H-spiro[[1,2,4]oxadiazole-5,6′-[2,7]methanopyrido[1,2-a][1,4]diazonine]-10′-carboxamide] |  |  |  |  | 0.6 nM | 24100 nM |
| COC1=NO[C@@]2(CC[C@H](C)N3C[C@H]2n2cc(C(=O)NCc4ncc(F)c(Cl)c4F)c(=O)c(O)c2C3=O)C1 [Example 64, (3′S,5S,7′R)—N-((4-chloro-3,5-difluoropyridin-2-yl)methyl)-12′-hydroxy-3-methoxy-3′-methyl-1′,11′-dioxo-1′,4′,5′,11′-tetrahydro-3′H,4H,7′H-spiro[isoxazole-5,6′-[2,7]methanopyrido[1,2-a][1,4]diazonine]-10′-carboxamide] |  | 300 nM | 0.6 nM | 22900 nM | 2.9 nM |  |
| CC1=NO[C@@]2(CC[C@H](CF)N3C[C@H]2n2cc(C(=O)NCc4c(F)cc(F)cc4F)c(=O)c(O)c2C3=O)C1 [Example 54, (3′R,5S,7′R)-3′-(fluoromethyl)-12′-hydroxy-3-methyl-1′,11′-dioxo-N-(2,4,6-trifluorobenzyl)-1′,4′,5′,11′-tetrahydro-3′H,4H,7′H-spiro[isoxazole-5,6′-[2,7]methanopyrido[1,2-a][1,4]diazonine]-10′-carboxamide] | 0.7 nM | 53.7 nM | 0.3 nM | 27300 nM |  |  |
| CNC1=NO[C@@]2(CC[C@H](C)N3C[C@H]2n2cc(C(=O)NCc4c(F)cc(F)cc4F)c(=O)c(O)c2C3=O)C1 [Example 51, (3′S,5S,7′R)-12′-hydroxy-3′-methyl-3-(methylamino)-1′,11′-dioxo-N-(2,4,6-trifluorobenzyl)-1′,4′,5′,11′-tetrahydro-3′H,4H,7′H-spiro[isoxazole-5,6′-[2,7]methanopyrido[1,2-a][1,4]diazonine]-10′-carboxamide] | 1.3 nM | 5.2 nM | 0.3 nM | 41100 nM |  |  |
| C[C@H]1CC[C@@]2(CNC(=O)O2)[C@H]2CN1C(=O)c1c(O)c(=O)c(C(=O)NCc3c(F)cc(F)cc3F)cn12 [Example 59, (3′S,5R,7′R)-12′-hydroxy-3′-methyl-1′,2,11′-trioxo-N-(2,4,6-trifluorobenzyl)-1′,4′,5′,11′-tetrahydro-3′H,7′H-spiro[oxazolidine-5,6′-[2,7]methanopyrido[1,2-a][1,4]diazonine]-10′-carboxamide] | 51.4 nM |  |  | ≥ 50000 nM |  |  |
| C[C@H]1CC[C@]2(CNC(=O)C2)[C@H]2CN1C(=O)c1c(O)c(=O)c(C(=O)NCc3c(F)cc(F)cc3F)cn12 [Example 58, (3S,3′S,7′S)-12′-hydroxy-3′-methyl-1′,5,11′-trioxo-N-(2,4,6-trifluorobenzyl)-1′,4′,5′,11′-tetrahydro-3′H,7′H-spiro[pyrrolidine-3,6′-[2,7]methanopyrido[1,2-a][1,4]diazonine]-10′-carboxamide] | 77.4 nM |  |  | ≥ 50000 nM |  |  |
| CC1=NO[C@@]2(CC[C@H](C)N3C[C@H]2n2cc(C(=O)NCc4ncc(F)c(Cl)c4F)c(=O)c(O)c2C3=O)C1 [Example 150, (3′S,5S,7′R)—N-((4-chloro-3,5-difluoropyridin-2-yl)methyl)-12′-hydroxy-3,3′-dimethyl-1′,11′-dioxo-1′,4′,5′,11′-tetrahydro-3′H,4H,7′H-spiro[isoxazole-5,6′-[2,7]methanopyrido[1,2-a][1,4]diazonine]-10′-carboxamide] |  |  |  | 27000 nM | 2.1 nM |  |
| C[C@H]1OC[C@]2(CC[C@H](C)N3C[C@H]2n2cc(C(=O)NCc4c(F)cc(F)cc4F)c(=O)c(O)c2C3=O)O1 [Example 132, (2S,3′S,4R,7′R)-12′-hydroxy-2,3′-dimethyl-1′,11′-dioxo-N-(2,4,6-trifluorobenzyl)-1′,4′,5′,11′-tetrahydro-3′H,7′H-spiro[[1,3]dioxolane-4,6′-[2,7]methanopyrido[1,2-a][1,4]diazonine]-10′-carboxamide] | 1.4 nM |  |  | 30300 nM |  |  |
| CC1=NO[C@@]2(CC[C@H](C)N3C[C@H]2n2cc(C(=O)NCc4c(F)cc(F)cc4F)c(=O)c(O)c2C3=O)S1 [Example 146, (3′S,5S,7′R)-12′-hydroxy-3,3′-dimethyl-1′,11′-dioxo-N-(2,4,6-trifluorobenzyl)-1′,4′,5′,11′-tetrahydro-3′H,7′H-spiro[[1,4,2]oxathiazole-5,6′-[2,7]methanopyrido[1,2-a][1,4]diazonine]-10′-carboxamide] |  |  |  |  | 1.3 nM | 16900 nM |
| COCC1=NO[C@@]2(CC[C@H](C)N3C[C@H]2n2cc(C(=O)NCc4ccc(F)cc4F)c(=O)c(O)c2C3=O)C1 [Example 22, (3′S,5S,7′R)—N-(2,4-difluorobenzyl)-12′-hydroxy-3-(methoxymethyl)-3′-methyl-1′,11′-dioxo-1′,4′,5′,11′-tetrahydro-3′H,4H,7′H-spiro[isoxazole-5,6′-[2,7]methanopyrido[1,2-a][1,4]diazonine]-10′-carboxamide] | 1.3 nM |  |  | 23700 nM |  |  |
| CCn1c(CN2O[C@@]3(CC[C@H](C)N4C[C@H]3n3cc(C(=O)NCc5c(F)cc(F)cc5F)c(=O)c(O)c3C4=O)CC2=O)nc2ccccc21 [Example 164, (3′S,5S,7′R)-2-((1-ethyl-1H-benzo[d]imidazol-2-yl)methyl)-12′-hydroxy-3′-methyl-1′,3,11′-trioxo-N-(2,4,6-trifluorobenzyl)-1′,4′,5′,11′-tetrahydro-3′H,7′H-spiro[isoxazolidine-5,6′-[2,7]methanopyrido[1,2-a][1,4]diazonine]-10′-carboxamide] | 3 nM |  |  | 45700 nM |  |  |
